Reference: patent US20220251109A1, “OXAAZAQUINAZOLINE-7(8H)-KETONE COMPOUND, PREPARATION METHOD THEREFOR AND PHARMACEUTICAL APPLICATION THEREOF” (GENFLEET THERAPEUTICS (SHANGHAI) INC., priority 2019, published 2022)
Like-named read-outs stand apart in the source and are kept apart here.

Key:
Format in all cases: cell-based, human
[1] = system: p-ERK in MIA PaCa2 cells (Kras G12C mutation); assay: Cell p-ERK detection experiment (HTRF) in MIA PaCa2 cells; settings: compound 2 hours
Experimental: MIA PaCa2 was a human pancreatic cancer cell line with Kras G12C mutation, cultured in 10% FBS+2.5% Horse serum DMEM medium. The cells in the logarithmic growth phase were taken, digested with enzyme EDTA, collected, counted and 2.5E4 cells were seeded in a 96-well cell culture plate, cultured overnight. DMSO was used to prepare 1000× compound 3.16-fold gradient concentration stock solution, and medium was used to dilute 200-fold to 5× compound stock solution. On the second day after cell seeding, 5× compound stock solution was added to each cell culture well, the final concentration was 1×, and DMSO content was 0.1%. DMSO was used as an experimental control (control). After the compound was added and cultured for two hours, the remaining medium was removed. 50 ul cell lysis buffer was added to each well, mixed and incubated for 30 minutes, then 16 ul of the mixture was transferred to a 96-well plate with a non-transparent white bottom, and 16 ul cell lysis buffer was added to blank wells. After the completion of the transfer, 4 ul p-ERK HTRF antibody mixture was added to each well, incubated for 4 hours and the fluorescence value was read. The compound inhibition rate IR (%)=(RLU control-RLU compound)/(RLU control-RLU blank)×100% was calculated, Prism 8 four-parameter method was used to fit the compound's gradient dilution concentration and the corresponding cell proliferation inhibition rate, and the IC50 value was calculate.

[2] = system: A549 cells (Kras G12S mutation); assay: Cell proliferation inhibition experiment, 3D model, CellTiter-Glo (A549); settings: A549, 3D sphere plate, 5 days, 2% FBS
How it was run: (§1)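 Luminescent ATP read-out (CellTiter-Glo) after 5-day compound treatment gave % inhibition relative to DMSO control and medium blank, fitted four-parameter for IC50. Spheroids were formed overnight in 2% FBS medium from 800 H358 or 400 A549 cells per well; dilutions were 3.16-fold, final DMSO 0.1%.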

[3] = system: NCI-H358 cells (Kras G12C mutation); assay: Cell proliferation inhibition experiment, 3D model, CellTiter-Glo (NCI-H358); settings: NCI-H358, 3D sphere plate, 5 days, 2% FBS
How it was run: as §1

[4] = system: MIA PaCa-2 cells (Kras G12C mutation); assay: Cell proliferation inhibition experiment, 3D model, CellTiter-Glo (MIA PaCa-2); settings: MIA PaCa-2, 3D sphere plate, 5 days, read-out: MIA-PaCa2 IC50
How it was run: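 3D spheroid model: 200 MIA PaCa-2 cells per well cultured overnight, then treated with a 3.16-fold compound dilution series (0.1% DMSO) for 5 days. Viability read by CellTiter-Glo luminescence. Inhibition rate normalised to DMSO and medium-blank controls; IC50 from four-parameter fit.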

[5] = Homo sapiens, MIA PaCa-2, 120 h

SMILES | IC50 ([1]; Homo sapiens, MIA PaCa-2, 2 h) [nM] | IC50 ([2]; Homo sapiens, A549, 120 h) [µM] | IC50 [3] [nM] | IC50 [4, 5] [nM] | IC50 [1] [nM] | IC50 [2] [µM] | IC50 [4] [nM] | IC50 ([3]; Homo sapiens, NCI-H358, 120 h) [nM]
C=CC(=O)N1CCN2c3nc(=O)n(-c4c(C)ccnc4C(C)C)c4nc(-c5c(O)cccc5F)c(Cl)c(c34)OC[C@H]2C1 (single isomer, unassigned) [Compound Z23-1] | 13 | > 10 | 1 | 3 | – | – | – | –
C=CC(=O)N1CCN2c3nc(=O)n(-c4c(C)ccnc4C(C)C)c4nc(-c5c(O)cccc5F)c(Cl)c(c34)OC[C@@H]2C1 (single isomer, unassigned) [Compound Z24-2] | – | – | 3 | – | 25 | > 10 | 8 | –
C=CC(=O)N1CCN2c3nc(=O)n(-c4c(C)ccnc4C(C)C)c4nc(-c5ccccc5F)c(Cl)c(c34)OC[C@@H]2C1 (single isomer, unassigned) [Compound Z46-2] | 20 | – | 3 | 8 | – | 5.48 | – | –
C=CC(=O)N1CCN2c3nc(=O)n(-c4c(C)ccnc4C(C)C)c4nc(-c5cccc(F)c5F)c(Cl)c(c34)OC[C@@H]2C1 (single isomer, unassigned) [Compound Z47-1] | – | – | 1 | – | 15 | > 10 | 3 | –
C=CC(=O)N1CCN2c3nc(=O)n(-c4c(C)ccnc4C(C)C)c4nc(-c5ccc(F)cc5F)c(Cl)c(c34)OC[C@@H]2C1 (single isomer, unassigned) [Compound Z49-1] | – | – | 6 | – | 64 | > 10 | 10 | –
C=CC(=O)N1CCN2c3nc(=O)n(-c4c(C)ccnc4C(C)C)c4nc(-c5c(O)cccc5F)c(F)c(c34)OC[C@H]2C1 (single isomer, unassigned) [Compound Z73-2] | – | – | 2 | – | 20 | > 10 | 5 | –
C=CC(=O)N1CCN2c3nc(=O)n(-c4c(C)ccnc4C(C)C)c4nc(-c5ccc(F)cc5F)c(Cl)c(c34)OC[C@H]2C1 (single isomer, unassigned) [Compound Z76-2] | – | – | 1 | 2 | 8 | > 10 | – | –
C=CC(=O)N1CCN2c3nc(=O)n(-c4c(C)ccnc4C(C)C)c4nc(-c5cccc(F)c5F)c(Cl)c(c34)OC[C@H]2C1 (single isomer, unassigned) [Compound Z77-2] | – | – | 1 | 2 | 8 | > 10 | – | –
C=CC(=O)N1CCN2c3nc(=O)n(-c4c(C)ccnc4C(C)C)c4nc(-c5ccccc5F)c(Cl)c(c34)OC[C@H]2C1 (single isomer, unassigned) [Compound Z87-2] | – | – | 1 | 2 | 9 | 5.55 | – | –
C=CC(=O)N1CCN2c3nc(=O)n(-c4c(C)ncnc4C(C)C)c4nc(-c5c(O)cccc5F)c(Cl)c(c34)OC[C@H]2C1 (single isomer, unassigned) [Compound Z88-2] | – | – | 3 | – | 27 | > 10 | – | –
C=CC(=O)N1CCN2c3nc(=O)n(-c4c(C)ccnc4C(C)C)c4nc(-c5cccc(Cl)c5F)c(Cl)c(c34)OC[C@H]2C1 (single isomer, unassigned) [Compound Z91-2] | – | – | 3 | 15 | 18 | > 30 | – | –
C=CC(=O)N1CCN2c3nc(=O)n(-c4c(C)ncnc4C(C)C)c4nc(-c5ccccc5F)c(Cl)c(c34)OC[C@H]2C1 (single isomer, unassigned) [Compound Z95-1] | – | 11.3 | 52 | – | 248 | – | – | –
C=CC(=O)N1CCN2c3nc(=O)n(-c4c(C)ncnc4C(C)C)c4nc(-c5ccccc5F)c(Cl)c(c34)OC[C@H]2C1 (single isomer, unassigned) [Compound Z95-2] | – | – | 1 | 1 | 5 | > 10 | – | –
C=CC(=O)N1CCN2c3nc(=O)n(-c4c(C)ncnc4C(C)C)c4nc(-c5cccc(F)c5F)c(Cl)c(c34)OC[C@H]2C1 (single isomer, unassigned) [Compound Z96-1] | – | > 10 | 59 | – | 195 | – | – | –
C=CC(=O)N1CCN2c3nc(=O)n(-c4c(C)ncnc4C(C)C)c4nc(-c5cccc(F)c5F)c(Cl)c(c34)OC[C@H]2C1 (single isomer, unassigned) [Compound Z96-2] | – | – | 2 | 2 | 7 | > 10 | – | –
C=CC(=O)N1CCN2c3nc(=O)n(-c4c(C#N)cnn4C(C)(C)C)c4nc(-c5ccccc5F)c(Cl)c(c34)OC[C@H]2C1 (single isomer, unassigned) [Compound Z109-1] | 18 | 8.48 | 5 | 12 | – | – | – | –
C=CC(=O)N1CCN2c3nc(=O)n(-c4c(OC)ncnc4C(C)C)c4nc(-c5c(O)cccc5F)c(F)c(c34)OC[C@H]2C1 (single isomer, unassigned) [Compound Z111-1] | 186 | > 30 | – | – | – | – | – | 34
C=CC(=O)N1CCN2c3nc(=O)n(-c4c(OC)ncnc4C(C)C)c4nc(-c5c(O)cccc5F)c(F)c(c34)OC[C@H]2C1 (single isomer, unassigned) [Compound Z111-2] | 34 | > 30 | – | 13 | – | – | – | 3
C=CC(=O)N1CCN2c3nc(=O)n(-c4c(C)ccnc4C(C)C)c4nc(-c5c(O)cccc5F)c(C)c(c34)OC[C@H]2C1 [Compound Z72] | 63 | > 10 | – | – | – | – | – | 5
C=CC(=O)N1CCN2c3nc(=O)n(-c4c(C)ccnc4C(C)C)c4nc(-c5c(O)cccc5F)c(C=C)c(c34)OC[C@H]2C1 [Compound Z74] | 128 | > 10 | – | – | – | – | – | 16
C=CC(=O)N1CCN2c3nc(=O)n(-c4c(C)ccnc4C(C)C)c4nc(-c5c(F)cccc5OC)c(Cl)c(c34)OC[C@H]2C1 [Compound Z75] | 112 | > 10 | – | – | – | – | – | 2
C=CC(=O)N1CCN2c3nc(=O)n(-c4c(C)ccnc4C(C)C)c4nc(-c5c(F)cccc5F)c(Cl)c(c34)OC[C@H]2C1 [Compound Z80] | 19 | > 10 | – | – | – | – | – | 3
C=CC(=O)N1CCN2c3nc(=O)n(-c4c(C)ncnc4C(C)C)c4nc(-c5c(O)cccc5F)c(Cl)c(c34)OC[C@H]2C1 [Compound Z88] | 86 | > 10 | – | – | – | – | – | 4
C=CC(=O)N1CCN2c3nc(=O)n(-c4c(C)ccnc4C(C)C)c4nc(-c5ccccc5Cl)c(Cl)c(c34)OC[C@H]2C1 [Compound Z90] | 19 | 7.78 | – | – | – | – | – | 4
C=CC(=O)N1CCN2c3nc(=O)n(-c4c(C)ccnc4C(C)C)c4nc(-c5cccc(Cl)c5F)c(Cl)c(c34)OC[C@H]2C1 [Compound Z91] | – | – | 2 | – | 16 | 4.22 | – | –
C=CC(=O)N1CCN2c3nc(=O)n(-c4c(C)ccnc4C(C)C)c4nc(-c5cc(O)ccc5F)c(Cl)c(c34)OC[C@H]2C1 [Compound Z118] | 166 | > 30 | – | – | – | – | – | 19
